From PubChem BioAssay AID179 (DTP/NCI, 2004)
The source made the active and inactive calls.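 The calls were made as follows: active = compounds giving half or more protection of infected cells from virus-caused growth loss, again on retest; inactive = the rest.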 Where a SMILES comes first, the peptide text is derived from it. [ ]: non-standard residue; d: D form. The star is where a group is joined. ξ: configuration not given here. NMeN = CN[C@@H](CC(N)=O)C(=O)O; NMeV = CN[C@H](C(=O)O)C(C)C; ξNMeV = CNC(C(=O)O)C(C)C; Boc = CC(C)(C)OC(=O)*; ξNMeA = CNC(C)C(=O)O

System: CEM cells HIV-1 protection, formazan growth assay
Assay: NCI AIDS Antiviral Assay
Settings: for IC50: measured here: growth of uninfected CEM cells
How it was run: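 Protection of CEM cells against HIV-1 was scored from cell growth (soluble formazan) across five concentrations, with parallel uninfected cells. Lack of protection may reflect toxicity.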

| Compound | outcome | EC50 | IC50 |
| --- | --- | --- | --- |
| Cc1ccccc1NC(=O)/C=N/O | inactive | – | – |
| Cc1cc(S(N)(=O)=O)c(SCc2nc(N)nc(N(C)C)n2)cc1Cl | – | > 200 µM | > 200 µM |
| COC(=O)c1cccc(C)c1C1CN=NC12Cc1cc(C)cc(C)c1C2=O (stereo unspecified) | – | > 200 µM | 12.3 µM |
| CCC[CH2][Sn]1([CH2]CCC)[O]C(=O)C2C(C=C(C)C)C=C(C)C(C)C2C(=O)[O]1 (stereo unspecified) | – | > 2 µM | 0.0871 µM |
| Cc1nnc2n1-c1ccccc1C(=S)N1CSCC21 (stereo unspecified) | – | > 200 µM | > 200 µM |
| OCCCSc1ccccc1SCCCO | – | > 52.5 µM | > 52.5 µM |
| COc1cc2c3cc1Oc1c(O)c(OC)cc4c1[C@H](Cc1ccc(cc1)Oc1cc(ccc1O)C[C@H]3N(C)CC2)N(C)CC4 | inactive | – | – |
| CN(C)CC(/C(Cc1ccccc1)=N\NC(=O)C[n+]1ccccc1)c1ccccc1 (stereo unspecified) | – | > 295 µM | 138 µM |
| N/N=C(\C(=O)Nc1c(Cl)cc([N+](=O)[O-])cc1Cl)C(c1cnc2ccc([N+](=O)[O-])cc2n1)[N+](=O)[O-] (stereo unspecified) | – | > 70.8 µM | > 70.8 µM |
| CCOc1ccc(N=Nc2ccc3oc(=O)c(/C(C)=N/NC(=O)CC(=O)Nc4cccc(OC)c4)cc3c2)cc1 | – | > 13.2 µM | > 13.2 µM |
| CC1=C/C(=N\O)C(C(O)(C(F)(F)F)C(F)(F)F)C(C)(C)C1 (stereo unspecified) | – | > 200 µM | 135 µM |
| OCC(O)COc1ccc(F)cc1 (stereo unspecified) | – | > 1350 µM | > 1350 µM |
| COC(=O)C(C)N(C)C(=O)[C@H](CC(N)=O)N(C)C(=O)[C@@H]1CCCN1C(=O)[C@H](C(C)C)N(C)C(=O)C(C(C)C)N(C)C(=O)[C@@H](NC(=O)OC(C)(C)C)C(C)C (stereo partly specified) (Boc-V[ξNMeV][NMeV]P[NMeN][ξNMeA]-OMe) | – | > 324 µM | > 324 µM |
| CC1(CO)C(=O)OC12CCCCC2 (stereo unspecified) | – | > 1350 µM | > 1350 µM |
| OCCCN=C1N=C(Cl)/C(=C\c2ccccc2)N1 | – | > 200 µM | > 200 µM |
| C(#CC[P+](c1ccccc1)(c1ccccc1)c1ccccc1)C[P+](c1ccccc1)(c1ccccc1)c1ccccc1 | – | > 200 µM | 36.3 µM |
| COc1cc(-c2cc(=O)c3ccc(O)cc3o2)cc(OC)c1OC | – | > 200 µM | > 200 µM |
| CC1=C2CC[C@]2(C)[C@]23OCC(C)(CC2C1=O)C3O (stereo partly specified) | inactive | – | – |
| CC1=NN(c2ccccc2)C(=O)CC1 | – | > 1320 µM | > 1320 µM |
| CNC(=O)OCCOc1ccccc1 | – | > 200 µM | > 200 µM |
| CCOC(=O)C1=C(Nc2ccc(Cl)c(Cl)c2)OC/C1=N\NC(=O)Cc1ccccc1 | – | > 100 µM | > 100 µM |
| Cc1sc2[nH]c(=O)oc(=O)c2c1C | – | > 200 µM | 30.2 µM |

| Compound | outcome | EC50 | IC50 |
| --- | --- | --- | --- |
| CCN(CC)c1c(-c2ccccc2)nnc2c3ccccc3nn12 | – | > 200 µM | 24 µM |
| O=[N+]([O-])C(/C(Cl)=C(\Cl)Br)=C(/Cl)SCc1ccccc1 | – | > 200 µM | 1.78 µM |
| CC1CCCc2c(-c3ccc(Cl)cc3)nc(N)c(C#N)c21 (stereo unspecified) | – | > 200 µM | 26.3 µM |
| CCOC(=O)C(CCC1=NC(C)(C)CC(C)O1)C(=O)OCC (stereo unspecified) | – | > 200 µM | > 200 µM |
| O=C1OC(c2ccccc2)(c2ccccc2)c2ccsc21 | – | > 200 µM | 69.2 µM |
| N#Cc1sc2c(c1O)c(=O)n(-c1ccccc1)c(=S)n2-c1ccccc1 | – | > 661 µM | 30.9 µM |
| O=c1oc2ccccc2c(O)c1C(c1ccc2c(c1)Cc1ccccc1-2)c1c(O)c2ccccc2oc1=O | – | > 200 µM | 46.8 µM |
| Nc1ccc(S(=O)(=O)c2ccc(NCNC(CSSCC(NCNc3ccc(S(=O)(=O)c4ccc(N)cc4)cc3)C(=O)O)C(=O)O)cc2)cc1 (stereo unspecified) | – | > 200 µM | 112 µM |
| O=C(N/N=C/c1ccc(Br)cc1)N/N=C/c1ccc(Br)cc1 | – | > 200 µM | 31.6 µM |
| O=C(O)c1ccc(S(=O)(=O)c2cccc([N+](=O)[O-])c2)cc1 | – | > 200 µM | > 200 µM |
| COc1cccc(NC(=O)/C(CS(=O)(=O)CCC(C(C)=O)C(C)=O)=N\NC(C)(C)C)c1 | – | 25.7 µM | 550 µM |
| NC(=O)CCC(Nc1c2ccccc2nc2ccccc12)C(=O)O (stereo unspecified) | inactive | – | – |
| O=c1[nH]c(=O)n(C2OC(CO)C(O)C2O)c2nc(-c3ccc(-c4ccccc4)cc3)cnc12 (stereo unspecified) | – | > 200 µM | > 200 µM |
| CCCc1cc(-c2ccc(N=Nc3cc(S(=O)(=O)O)c4ccccc4c3N)c(CCC)c2)ccc1N=Nc1cc(S(=O)(=O)O)c2ccccc2c1N | – | 105 µM | 182 µM |
| COC(=O)/C(=N\NC(N)=O)C(C(=O)C(=O)Nc1ccccc1C(=O)OC)c1nc2ccc(C(=O)c3ccccc3)cc2[nH]c1=O (stereo unspecified) | inactive | – | – |
| O=C(CNc1ccccn1)Nn1cnc2ccc(S(=O)(=O)Nc3ccccn3)cc2c1=O | – | > 200 µM | > 200 µM |
| Nc1[nH]c(=O)[nH]c(=O)c1N=O | – | > 200 µM | > 200 µM |
| CC(=O)OC12CC(C)C3(O)C4C=C(C)C(=O)[C@@]4(O)CC(CO)=C[C@H]3C1C2(C)C (stereo partly specified) | active | – | – |
| COc1cc2cc[n+]3c(C)c4cc(OC)c(OC)cc4c([O-])c3c2cc1OC | – | > 200 µM | 123 µM |
| CC(C)S(=O)(=O)ON1C(=O)c2ccc(N(C)C)cc2C1=O | – | > 83.2 µM | > 83.2 µM |
| O=c1/c(=N\Nc2ccccc2)c2cccc3ccc4cccc1c4c32 | – | > 100 µM | > 100 µM |
| N#C/C(=C\NC(=S)Nc1ccc(S(N)(=O)=O)cc1)C(=O)c1ccc2ccccc2c1 | – | > 200 µM | 155 µM |

| Compound | outcome | EC50 | IC50 |
| --- | --- | --- | --- |
| COc1ccc(-c2c(N3CCOCC3)oc3cc(N4CCOCC4)c(O)cc23)cc1 | – | > 200 µM | 10.2 µM |
| Cc1ccc(C2C(Cl)C(=O)N2n2cnc3ccccc3c2=O)cc1 (stereo unspecified) | – | > 39.8 µM | > 39.8 µM |
| CCOc1ccccc1-c1nc2c(s1)C(=O)c1ccccc1C2=O | – | > 200 µM | 32.4 µM |
| CCOC(=N)n1c(=O)n(C2=NCCN2)c2ccccc21 | – | > 200 µM | 123 µM |
| O=C1c2ccccc2-c2c3c(cc4ccnc1c24)OCO3 | inactive | – | – |
| N/N=C(\Cc1ccccc1)NN=C(N)N | – | > 457 µM | 389 µM |
| S=P1(Oc2ccccc2)OCCO1 | – | > 617 µM | > 617 µM |
| O=C(Nc1ccc2cc(S(=O)(=O)O)ccc2c1)c1ccc(N=Nc2cc(S(=O)(=O)O)c3ccccc3c2O)cc1 | – | > 50.1 µM | > 50.1 µM |
| N#Cc1c(N2CCCC2)ncn(-c2ccccc2)c1=O | – | > 200 µM | > 200 µM |
| CCCCCCCCCCCC(=O)Nc1ccc(SSc2ccc(NC(=O)CCCCCCCCCCC)cc2)cc1 | – | > 200 µM | > 200 µM |
| COC1/C=C/OC2(C)Oc3c(C)c(O)c4c(O)c(c(/C=N\N(C)C56CC7CC(CC(C7)C5)C6)c(O)c4c3C2=O)NC(=O)C(C)=C/C=C/C(C)C(O)C(C)C(O)C(C)C(OC(C)=O)C1C (stereo unspecified) | – | > 200 µM | 7.41 µM |
| O=[N+]([O-])c1ccc(S(=O)(=O)N/N=C/C=C/c2ccccc2)cc1 | – | > 151 µM | > 151 µM |
| O=C(c1ccccc1SSc1ccccc1C(=O)N1CSC[C@@H]1CO)N1CSC[C@H]1CO | – | > 200 µM | 107 µM |
| CN(C)C(=O)C(NCCO)c1ccccc1 (stereo unspecified) | – | > 200 µM | 74.1 µM |
| CN(C)C(=O)OC(Cn1cncn1)(Cn1cncn1)c1ccc(Cl)cc1Cl | – | > 200 µM | > 200 µM |
| Fc1ccc(OCc2ccc3nc(-c4ccccc4)c(Cl)nc3c2)cc1 | – | > 100 µM | > 100 µM |
| CN1CC=C(c2c(N)nc(N)[nH]c2=O)CC1 | – | > 200 µM | > 200 µM |
| c1ccc(N=C(N2CCOCC2)N(CCN2CCOCC2)c2ccccc2)cc1 | – | > 200 µM | 182 µM |
| C/C(=N\NC(N)=S)C(CN1CCCCC1)C(C1=C(O)c2ccccc2OC1)c1ccccc1 (stereo unspecified) | – | > 224 µM | 123 µM |
| Nc1ccc(S(=O)(=O)Nc2nccs2)cc1 | – | > 200 µM | > 200 µM |
| O=C1CCCCC(=O)Nc2ccccc2-c2ccccc2N1 | inactive | – | – |
| Nc1ncnc2c1ncn2C1CC(O)C(CO)O1 (stereo unspecified) | – | > 1000 µM | 186 µM |

| Compound | outcome | EC50 | IC50 |
| --- | --- | --- | --- |
| O=c1[nH]c(=O)n(C2CC(O)C(CO)O2)cc1NN=NCCCc1ccccc1 (stereo unspecified) | – | > 200 µM | > 200 µM |
| N#Cc1snc2sc(=O)sc12 | – | > 112 µM | 8.71 µM |
| O=C1OC(O)C(Oc2c(Cl)cccc2Cl)=C1Cl (stereo unspecified) | – | > 40.7 µM | 19.1 µM |
| CCCCCC(=O)Cc1cc(O)cc2c1C(=O)Oc1cc(O)c(C(=O)O)c(CCCCC)c1O2 | – | > 200 µM | 33.9 µM |
| CCCCN(CC)C(=O)C(=O)C1C(=O)Nc2ccccc2S1=O (stereo unspecified) | – | > 204 µM | > 204 µM |
| CCCCNC(=O)Sc1ccccc1C(=O)NCCS(N)(=O)=O | – | 0.141 µM | 50.1 µM |
| CS(=O)(=O)c1nc(Cl)c(Cl)c(C#N)c1Cl | – | > 200 µM | 0.457 µM |
| CCOc1ccc2nc(NC(=O)CC(C)=O)sc2c1 | – | > 200 µM | 27.5 µM |
| C/C(=N\[N+](C)(C)C)c1ccc(C)c(C)c1 | – | > 200 µM | 102 µM |
| Cc1ccc(CN=C(N)CSS(=O)(=O)O)cc1C | – | > 200 µM | > 100 µM |
| CCCC/C=C(/C1OC(=O)N2CCC[C@H]2C1(C)C)[Si](C)(C)C (stereo partly specified) | – | > 6.17 µM | > 6.17 µM |
| O=C(NCCNCCNC(=O)c1cc(-c2ccccc2)nc2ccccc12)c1cc(-c2ccccc2)nc2ccccc12 | – | > 20 µM | 3.47 µM |
| O=C1OC(=O)c2c1nc1ccccc1c2-c1ccccc1 | inactive | – | – |
| O=C1CC2Sc3ccccc3N=C2N1c1ccc(Cl)cc1Cl (stereo unspecified) | – | > 269 µM | 47.9 µM |
| CC(C)(C)C1CCC2c3c([nH]c4ccccc34)C3C(=O)N(c4ccc5c(c4)C(=O)c4ccccc4C5=O)C(=O)C3C2C1 (stereo unspecified) | – | > 200 µM | > 200 µM |
| CNc1ccc([N+](=O)[O-])cc1C(=O)N1CCC[C@H]1CO | – | > 200 µM | > 200 µM |
| CCOC(=O)/C(Cc1cc[n+]([O-])cc1)=N/O | inactive | – | – |
| O=S(=O)(O)c1cc(Cl)cc(Cc2cc(Cl)cc(S(=O)(=O)O)c2O)c1O | active | – | – |
| CN(CCCNC(=O)c1cc(-c2ccccc2)nc2ccccc12)CCCNC(=O)c1cc(-c2ccccc2)nc2ccccc12 | – | > 20 µM | 3.39 µM |
| COc1ccc(OC)c(/C=N/N=C(\N)NO)c1 | – | > 603 µM | 115 µM |
